The text below walks through data of US20110189291A1, “DENDRIMER HYDROGELS” (priority 2009, published 2011).

Data set [1] can be described thus: In vitro drug release by dialysis in pH 7.4 PBS at 37° C. It is filed as physicochemical. The conditions noted are these: for time for complete release (in words): from eye drop formulations. The protocol: The control eye drop formulation was PBS containing 0.1% brimondien and 0.5% timiolol maleate. […] The dissolution medium was maintained at 37±2° C. and constantly agitated in a shaker incubator. 4. Dissolution medium was completely replaced at all time intervals with 1.5 ml of fresh dissolution medium maintained at 37±2° C. 5. The amount of drug released in the dissolution medium at each time interval was analyzed by LC-MS.

A further data set is described as follows: physchem. The conditions noted are these: for solubility: thermodynamic from solid, saturated concentration (solubility); for solubility / saturated concentration (solubility): room temperature. The procedure: Following overnight equilibration at room temperature, the solution was vortexed again and then centrifuged at 10,000 rpm for 5 min to remove undissolved drug. The sample solution was diluted by a factor of 100 in PBS, and absorbance value (Y) at 248 nm was recorded on a GENESYS™ 6 UV-Visual spectrophotometer. Thus, drug concentration (C in μg/mL) was determined using the following regression equation: C=(Y−0.005)/0.063. […] Measurements were done in duplicate.
Following overnight equilibration at room temperature, the solution was vortexed again and then centrifuged to remove undissolved drug. The supernatant was collected, diluted by a factor of 100 in PBS, and its absorbance value (Y) at 248 nm was recorded on a GENESYS™ 6 UV-Visual spectrophotometer. Thus, drug concentration [C] (μg/mL) was determined using the following regression equation: C=(Y−0.005)/0.063 [2]. […] Measurements were done in duplicate.

The nature of data set [2]: Ex vivo bovine eye tissue uptake after topical dosing. It is filed as in vitro ADME. The protocol: 1. […] Eyes were kept in the muffin plate and partially dipped into PBS pH 7.4. 3. 50 μl of hydrogel formulation or solution was instilled gently as an eye drop onto the corneal surface. 4. After every 15 minutes, 50 μl of fresh PBS pH 7.4 was instilled as an eye drop to prevent corneal drying. 5. At the end of 1 h, eyes were dissected and the following tissues were collected: corneal epithelium, stroma, endothelium and aqueous humor. Tissues were stored at −80° C. before sample processing and analysis. 1. Tissues weights were recorded and 0.49 ml of 2% NaOH solution was added to these tissues along with 10 μl of IS of 12.5 μg/ml. 2. Samples were homogenized, sonicated, and extracted with organic solvent. Final reconstitution was done in 0.5 ml of acetonitrile-water mixture (75:25).

A short description of data set [3]: Ex vivo transcorneal transport. The procedure:
1. Corneas were isolated from freshly excised bovine eyes and mounted in Using chambers. 2. […] Note: Both drugs were present together in this hydrogel/solution cocktail. 3. […] 4. 200 μl of sample was collected from the receiver side with fresh assay buffer replacement at the end of 1, 2, 3, 4 and 6 h. 5. […] 6. Samples were stored at −80° C. prior to analysis. 7. Cumulative percent transport was normalized to the amount of drug present at zero time point.

Data set [4] relates to Human corneal epithelial cells (HCET). It is filed as cell-based. To be noted: 1 h. The protocol: The uptake of brimonidine and timolol maleate by HCET cells after entrapment of the drugs in a hydrogel was studied. As a control, eye drop formulation of both the drugs in phosphate buffer saline was used. • 1. Human corneal epithelial cells (HCET, passage #40) were seeded in a 48 well plate (BD, Falcon®, Multiwell™ tissue culture plates) at a seeding density of 5000 cells/well. • 2. The cells were allowed to adhere to the surface of the well overnight. • 3. […] The cells were washed twice with 200 μl cold PBS pH 7.4 and twice with 200 μl cold acidic PBS pH 5.0. All the washes were collected. Finally, 200 μl of 1% w/v Triton X 100 solution was transferred to each well and allowed to stand for 30 minutes. • 6. The cells were scraped (dislodged) using a pipette tip and suspension of cells in 1% Triton X 100 solution was collected. • 7. Samples were processed as follows: 100 μl of sample collected as described above was diluted to 500 μl using acetonitrile. The samples were vortexed for 10 minutes and centrifuged at 10,000 rpm for 5 minutes, and then analyzed using LC-MS as described in Table 4. Dorzolamide was used as an internal standard

≈ marks a conversion by molar mass, not a printed value. Where “and” joins values, the source holds several entries; their conditions need not be identical. Equal entries are not always repeated. Structures can show the parent of a compound that is named as a salt. Where two headings read alike, the source gives them in different places.

The solubility is how much of the substance goes into solution per volume. With `Brc1c(NC2=NCCN2)ccc2nccnc12` [brimonidine], in data set [1] (from DH formulation), the “duration of sustained release” value is given as about 72 h. Besides, in data set [1], the “time for complete release (in words)” value is “within one hour and a half”. Besides, the “duration of sustained release” value in data set [1] (from hydrogel Formulation C (0.1% brimonidine, 0.5% timolol maleate), 37° C.) was 72 h. Moreover, in the data set “physchem” (8.1% (w/v) G3.0-PEG-dA in PBS, aqueous with cosolvent or surfactant or cyclodextrin, in the presence of G3.0-PEG-dA (8.1% w/v in PBS; DH formulation)), the solubility was determined as 696 µg/mL. Also, in “physchem” (G3.0-PEG-dA / DH formulation versus plain PBS), the solubility increase is 77.5% and 77.6%. In addition, the solubility in “physchem” (PBS, aqueous buffer, plain PBS) came out at 392 µg/mL (≈ 1340 µM). Further, in the data set “physchem” (in the presence of G3.0-PEG-dA (8.1% w/v in PBS; DH formulation)), the “saturated concentration (solubility)” value was 696 µg/mL. In addition, the “saturated concentration (solubility)” value in the data set “physchem” (plain PBS) was 392 µg/mL. Also, the “level in aqueous humor, hydrogel versus eye drop formulation (in words)” value in data set [2] (1 h after topical instillation) is recorded as “significant difference in drug level was not observed”. Further, the “corneal transport, hydrogel formulation versus solution (in words)” value in data set [3] (at the end of 6 h) is listed as “slightly higher transport”. Besides, the “cumulative percentage transport across the cornea” value in data set [3] (from the DH formulation, at 6 h) came to 1.06±0.18%. In data set [4], the “Mean % drug content in cell lysate after completion of study (uptake)” value was 76.17%, the “Mean % drug content in first wash with acidic buffer” value (from here on “Mean % drug content in first wash”) is listed as 0.00%, the “Mean % drug content in second wash with acidic buffer” value (“Mean % drug content in second wash” below) is 0.00% and the “Mean % drug content in supernatant after completion of study” value (“Mean % drug content in supernatant” below) came to 0.00%. Moreover, in data set [4], the “uptake with DH formulation higher than with eye drop formulation” value was 19 fold. In data set [4] (pH 7.4), the “Mean % drug content in first wash” value came out at 93.13%, the “Mean % drug content in second wash” value was 2.92% and the “Mean % drug content in supernatant” value was 0.06%.

On to `CC(C)(C)NC[C@H](O)COc1nsnc1N1CCOCC1` [timolol maleate], for which, in data set [1] (from DH formulation), the “duration of sustained release” value is about 56 h. For the same compound, in data set [1], the “time for complete release (in words)” value is “within one hour and a half”. In data set [2] (bovine, 1 h, 0.5 %, pH 7.4), the “level from hydrogel formulation more than from eye drop solution” value came out at 40%. In addition, in data set [3], the “corneal transport, hydrogel formulation versus solution (in words)” value was “higher from hydrogel”. Also, the “cumulative percentage transport across the cornea” value in data set [3] (bovine, 6 h, pH 7) came out at 13.54±1.83%. Further, in data set [4], the “Mean % drug content in first wash” value was found to be 0.0%, the “Mean % drug content in second wash” value is on record as 14.9% and the “Mean % drug content in supernatant” value turned out to be 0.1%. In addition, in data set [4] (pH 7.4), the “Mean % drug content in first wash” value was found to be 0.0%, the “Mean % drug content in second wash” value is given as 34.7% and the “Mean % drug content in supernatant” value is recorded as 0.2%.
